This passage reports pest or weed control results from patent US10590143B2, “Herbicidally active (alkynyl-phenyl)-substituted cyclic dione compounds and derivatives thereof” (Syngenta Limited, priority 2013, dated 2020).

What all share (assay): Biological Example 1 glasshouse assay for herbicidal activity
What all share (format): in vivo

Test [1] deals with Zea mays (ZEAMX, corn, maize, e.g. volunteer corn). The following applies: Zea mays, 312 h, 13 days after application, read-out: percentage phytotoxicity ZEAMX. How it is done: (§1) Seeds of a variety of test plant species were sown in standard soil** in pots. After cultivation for one day (pre-emergence) or after 8 days cultivation (post-emergence) under controlled conditions in a glasshouse (at 24/16° C., day/night; 14 hours light; 65% humidity), the plants were sprayed with an aqueous spray solution derived from the formulation of the technical active ingredient (the test herbicide) in acetone/water (50:50) solution containing 0.5% Tween 20 (polyoxyethylene sorbitan monolaurate, CAS Reg. No. 9005-64-5). The test plants were then grown on under controlled conditions in a glasshouse (at 24/16° C., day/night; 14 hours light; 65% humidity) and watered twice daily. 13 Days after application of the test herbicide, for pre- and post-emergence, the test was evaluated visually for percentage phytotoxicity to each plant (where 100%=total damage to plant; 0%=no damage to plant). Generally, each test herbicide is only tested on 1 plant per plant species for each application rate tested and for each application timing. **The “standard soil” in Biological Example 1 is usually a “sand” or “sandy loam” type of soil.
(§2) Dicotyledonous weeds: ABUTH=Abutilon theophrasti; AMARE=Amaranthus retroflexus. Grassy monocotyledonous weeds: SETFA=Setaria faberi; ALOMY=Alopecurus myosuroides; ECHCG=Echinochloa crus-galli; ZEAMX=Zea mays (corn, maize, e.g. volunteer corn).

Test [2] relates to Echinochloa crus-galli (ECHCG). As to conditions: Echinochloa crus-galli, 312 h, 13 days after application, read-out: percentage phytotoxicity ECHCG. The procedure: as §1, §2
The subject of test [3] is Abutilon theophrasti (ABUTH). As to conditions: 312 h, 13 days after application, read-out: percentage phytotoxicity ABUTH. The procedure:
as §1, §2

The subject of test [4] is Alopecurus myosuroides (ALOMY). As to conditions: 312 h, 13 days after application, read-out: percentage phytotoxicity ALOMY. The procedure: as §1, §2
The test system of test [5] is Setaria faberi (SETFA). The following applies: 312 h, 13 days after application, read-out: percentage phytotoxicity SETFA. How it is done: as §1, §2
Test [6] has as its system Amaranthus retroflexus (AMARE). As to conditions: Amaranthus retroflexus, 312 h, 13 days after application, read-out: percentage phytotoxicity AMARE. How it is done:
as §1, §2

Like-named read-outs stand apart in the source and are kept apart here.

`CC#Cc1cc(F)c(C2=C(OC(=O)OCC)C3CCC(C3)C2=O)c(OC)c1` (stereo not drawn) [Compound P2]: the pest or weed control at 8 g/ha was 90% in test [1] (post-emergence, post-emergence); 90% in test [2] (post-emergence, post-emergence); 10% in test [3] (post-emergence, post-emergence); 70% in test [4] (post-emergence); 60% in test [5] (post-emergence, post-emergence); 20% in test [6] (post-emergence, post-emergence). The pest or weed control at 30 g/ha in test [1] (post-emergence, post-emergence) was found to be 100%; in test [1] (pre-emergence, pre-emergence) it was 90%; in test [2] (post-emergence, post-emergence) it was 100%; in test [2] (pre-emergence, pre-emergence) it was 80%; in test [3] (post-emergence, post-emergence), 30%; in test [3] (pre-emergence, pre-emergence) it was 20%. The pest or weed control at 30 g/ha was found to be 90% in test [4] (post-emergence); 80% in test [4] (pre-emergence); 90% in test [5] (post-emergence, post-emergence); 50% in test [5] (pre-emergence, pre-emergence); 20% in test [6] (post-emergence, post-emergence); 40% in test [6] (pre-emergence, pre-emergence). For the same molecule, the pest or weed control at 250 g/ha in test [1] (post-emergence, post-emergence) came to 100%; in test [1] (pre-emergence, pre-emergence), 100%; in test [2] (post-emergence, post-emergence), 100%; in test [2] (pre-emergence, pre-emergence) it was 100%; in test [3] (post-emergence, post-emergence) it was 80%; in test [3] (pre-emergence, pre-emergence) it was 60%. Moreover, the pest or weed control at 250 g/ha came to 90% in test [4] (post-emergence); 100% in test [4] (pre-emergence); 100% in test [5] (post-emergence, post-emergence); 90% in test [5] (pre-emergence, pre-emergence); 40% in test [6] (post-emergence, post-emergence); 70% in test [6] (pre-emergence, pre-emergence).

For `C#Cc1cc(F)c(C2C(=O)C3CCC(C3)C2=O)c(OC)c1` (stereo not drawn) [Compound B1], the pest or weed control at 8 g/ha is 80% in test [1] (post-emergence, post-emergence); 0% in test [1] (pre-emergence, pre-emergence); 20% in test [2] (post-emergence, post-emergence); 50% in test [2] (pre-emergence, pre-emergence); 50% in test [3] (post-emergence, post-emergence); 10% in test [3] (pre-emergence, pre-emergence). The pest or weed control at 8 g/ha in test [4] (post-emergence) amounted to 0%; in test [4] (pre-emergence), 0%; in test [5] (post-emergence, post-emergence) it was 70%; in test [5] (pre-emergence, pre-emergence), 40%; in test [6] (post-emergence, post-emergence), 0%; in test [6] (pre-emergence, pre-emergence) it was 30%. In addition, the pest or weed control at 30 g/ha in test [1] (post-emergence, post-emergence) is 90%; in test [1] (pre-emergence, pre-emergence) it was 70%; in test [2] (post-emergence, post-emergence) it was 70%; in test [2] (pre-emergence, pre-emergence), 50%; in test [3] (post-emergence, post-emergence), 50%; in test [3] (pre-emergence, pre-emergence), 20%. Also, the pest or weed control at 30 g/ha came out at 20% in test [4] (post-emergence); 10% in test [4] (pre-emergence); 70% in test [5] (post-emergence, post-emergence); 60% in test [5] (pre-emergence, pre-emergence); 0% in test [6] (post-emergence, post-emergence); 50% in test [6] (pre-emergence, pre-emergence). In addition, the pest or weed control at 250 g/ha in test [1] (post-emergence, post-emergence) amounted to 100%; in test [1] (pre-emergence, pre-emergence), 100%; in test [2] (post-emergence, post-emergence), 100%; in test [2] (pre-emergence, pre-emergence) it was 90%; in test [3] (post-emergence, post-emergence), 70%; in test [3] (pre-emergence, pre-emergence), 0%. The pest or weed control at 250 g/ha was found to be 80% in test [4] (post-emergence); 90% in test [4] (pre-emergence); 90% in test [5] (post-emergence, post-emergence); 100% in test [5] (pre-emergence, pre-emergence); 20% in test [6] (post-emergence, post-emergence); 30% in test [6] (pre-emergence, pre-emergence).

For `CC#Cc1cc(F)c(C2C(=O)C3CCC(C3)C2=O)c(OCC)c1` (stereo not drawn) [Compound A4], the pest or weed control at 30 g/ha in test [1] (post-emergence, post-emergence) amounted to 100%; in test [1] (pre-emergence, pre-emergence), 80%; in test [2] (post-emergence, post-emergence) it was 90%; in test [2] (pre-emergence, pre-emergence), 90%; in test [3] (post-emergence, post-emergence) it was 10%; in test [3] (pre-emergence, pre-emergence) it was 20%. Moreover, the pest or weed control at 30 g/ha in test [4] (post-emergence) came to 80%; in test [4] (pre-emergence), 70%; in test [5] (post-emergence, post-emergence) it was 70%; in test [5] (pre-emergence, pre-emergence), 50%; in test [6] (post-emergence, post-emergence), 20%; in test [6] (pre-emergence, pre-emergence) it was 40%. The pest or weed control at 250 g/ha in test [1] (post-emergence, post-emergence) is 100%; in test [1] (pre-emergence, pre-emergence), 100%; in test [2] (post-emergence, post-emergence), 100%; in test [2] (pre-emergence, pre-emergence), 100%; in test [3] (post-emergence, post-emergence), 30%; in test [3] (pre-emergence, pre-emergence) it was 30%. For the same molecule, the pest or weed control at 250 g/ha in test [4] (post-emergence) was 90%; in test [4] (pre-emergence), 90%; in test [5] (post-emergence, post-emergence), 100%; in test [5] (pre-emergence, pre-emergence), 70%; in test [6] (post-emergence, post-emergence), 50%; in test [6] (pre-emergence, pre-emergence) it was 50%.

As for `CC#Cc1cc(F)c(C2C(=O)C3CCC(C)(C2=O)C3(C)C)c(OCCOC)c1` (stereo not drawn) [Compound A10], the pest or weed control at 250 g/ha in test [1] (post-emergence, post-emergence) came to 40%; in test [2] (post-emergence, post-emergence), 0%; in test [3] (post-emergence, post-emergence), 0%; in test [4] (post-emergence), 0%; in test [5] (post-emergence, post-emergence), 0%; in test [6] (post-emergence, post-emergence), 0%.

In the case of `CC#Cc1cc(F)c(C2C(=O)C3CCC(C)(C2=O)C3(C)C)c(OCC(F)(F)F)c1` (stereo not drawn) [Compound A9], the pest or weed control at 250 g/ha came to 20% in test [1] (post-emergence, post-emergence); 10% in test [2] (post-emergence, post-emergence); 0% in test [3] (post-emergence, post-emergence); 10% in test [4] (post-emergence); 20% in test [5] (post-emergence, post-emergence); 0% in test [6] (post-emergence, post-emergence).
